Data set [1] in a line: acute toxicity, oral administration, solution in Tween. The conditions noted are these: mouse, in vivo, souris, voie orale; for mortality: solution dans le Tween, read-out: mortalité. Here is the method: (§1) La toxicité a été déterminée chez la souris. En solution dans le Tween et après administration par voie orale le COR37 05C entraine 0 % de mortalité à 500 mg/kg, 40 % à 750 et 40 % à 1000; le COR37 06C entraine 0 % de mortalité à 100 mg/kg, 10 % à 200, 10 % à 250, 90 % à 375, 100 % à 500 (DL50 = 294 mg/kg (261-332); les COR37 09C, COR37 49C et COR37 50C entrainent 0 % de mortalité à 300 mg/kg. En solution dans le Tween et après administration par voie intrapéritonéale le COR37 05C entraine 0 % de

Data set [2] can be described thus: acute toxicity, intraperitoneal administration, solution in Tween. Type of data set: in vivo. The conditions noted are these: mouse, in vivo, ip, souris, voie intrapéritonéale, solution dans le Tween, read-out: mortalité.
The test system of another data set is PRP de lapin. As to the kind of experiment: platelet aggregation in vitro induced by ADP in rabbit PRP. Type of data set: cell-based. The conditions noted are these: Oryctolagus cuniculus, 100 microg/ml, d'ADP, read-out: activité (agrégation plaquettaire induite par ADP). Here is the method: (§2) L'activité antiagrégante plaquettaire a été déterminée in vitro. Quand l'agrégation est induite par 0,05 ml d'une préparation standardisée de collagène bovin dans un plasma riche en plaquettes (PRP) de lapin, le COR37 06C entraine 100 % d'inhibition à 1 microg/ml alors que l'aspirine dans les mêmes conditions est active à 10 microg/ml et l'indométacine à 0,5 microg/ml. Dans le modèle de l'agrégation plaquettaire induite par […] d'ADP dans un PRP de lapin, à 100 microg/ml, le COR37 09C entraine 79 % d'activité, le COR37 50C entraine 80 % d'activité et l'adénosine 64 %.

The test system of data set [3] is oreillette isolée de cobaye stimulée électriquement. As to the kind of experiment: antiarrhythmic activity in vitro, electrically stimulated isolated guinea pig atrium. Type of data set: cell-based. The conditions noted are these: read-out: Ci30. The source says: In vitro dans le modèle de l'oreillette isolée de cobaye stimulée électriquement le COR37 05C et le COR37 06C sont actifs avec des Ci30 de respectivement 6,22 (4,37-8,86) 10^-6 M/1 et 7,26.10^-6 (4,68.10^-6-1,12.10^-5) M/1 contre 10^-5 M/1 pour la procaïne, 4.10^-6 M/1 pour la quinidine et 4,5.10^-6 M/l pour le propranolol.

The subject of data set [4] is arythmies induites par l'aconitine. Briefly: aconitine-induced arrhythmias in the rat. Type of data set: in vivo. The conditions noted are these: for pourcentage d'animaux ne présentant pas de fibrilloflutters: voie orale. Here is the method: Ces produits ont été testés dans le modèle des arythmies induites par l'aconitine chez le rat. Les résultats sont exprimés par le pourcentage d'augmentation de la quantité d'aconitine provoquant l'apparition d'extrasystoles (E), de fibrilloflutters (F), de tachycardies (T) et de morts (M). Administrés par voie intraveineuse 1 mn avant la perfusion d'aconitine, le COR37 05C entraine à 10 mg/kg 78 % (E), 87 % (T) et 83 % (M) d'activité et le COR37 06C à 5 mg/kg entraine 45 % (E), 39 % (T) et 79 % (M) d'activité. Administrés par voie orale 45 mn avant la perfusion d'aconitine à 100 mg/kg, le COR37 05C entraine 83 % (E), 99 % (T), 43 % (F) et 107 % (M) d'activité et le COR37 06C 25 % (E), 32 % (T), 29 % (F) et 105 % (M) d'activité. De plus le pourcentage d'animaux ne présentant pas de fibrilloflutters après administration de 100 mg/kg de COR37 05C et COR37 )6C par voie orale est respectivement de 70 et 60 %.

Data set [5] can be described thus: acute toxicity, intravenous administration. As to conditions: mouse, in vivo, souris, voie intraveineuse, limits (53,8 - 59,5), read-out: DL50 (the source's name). How it is done:
as §1
Par voie intraveineuse le COR37 05C présente une DL50 de 56,6 mg/kg (53,8 - 59,5).

The test system of data set [6] is souris soumise à une anesthésie chloroformique profonde. As to the kind of experiment: antiarrhythmic activity, mouse under deep chloroform anaesthesia. Type of data set: in vivo. As to conditions: ip, read-out: dose active (activité antiarythmique). Here is the method: L'activité antiarythmique a été déterminée sur plusieurs modèles expérimentaux. Dans le modèle de la souris soumise à une anesthésie chloroformique profonde le COR37 05C et le COR37 06C présentent après administration intrapéritonéale une activité antiarythmique dès la dose de 25 mg/kg; le COR37 50C est actif sur ce même modèle à 100 mg/kg. Le propranolol est actif dans les mêmes conditions à la dose de 40 mg/kg et la quinidine à la dose de 100 mg/kg.

In the next data set the test system is souris. Briefly: acute toxicity, intraperitoneal administration, solution in Tween. Type of data set: in vivo. As to conditions: voie intrapéritonéale, 200 mg/kg, solution dans le Tween.
Data set [7] deals with oreillette gauche de cobaye. Briefly: calcium-antagonist activity in vitro, electrically stimulated guinea pig left atrium in low-calcium Tyrode. Type of data set: cell-based. The conditions noted are these: 100 Microg/ml; 150 battements/mn, Tyrode pauvre en calcium (0,6mM), addition de 0,6 mM de calcium. How it is done:
L'activité anticalcique a été déterminée in vitro sur oreillette gauche de cobaye stimulée électriquement à 150 battements/mn dans une solution de Tyrode pauvre en calcium (0,6mM).

The subject of data set [8] is plasma riche en plaquettes (PRP) de lapin. Briefly: platelet aggregation in vitro induced by bovine collagen in rabbit PRP. Type of data set: cell-based. As to conditions: 1 microg/ml, 0,05 ml de collagène bovin, read-out: inhibition de l'agrégation plaquettaire. How it is done:
as §2

For a further data set, the system named is cornée de cobaye. Briefly: local anaesthetic activity, guinea pig cornea with tactile stimulus. The conditions noted are these: concentration de 0,5 %. Type of data set: in vivo. The source says:
L'activité anesthésique locale a été déterminée dans le test de la cornée de cobaye soumise à un stimulus tactile. Le COR37 06C employé à la concentration de 0,5 % est actif pendant 30 mn.

The mark [9] stands for this setting: oreillette isolée de cobaye stimulée électriquement, in vitro.
Setting [10] is: voie intraveineuse 1 mn avant la perfusion d'aconitine, 10 mg/kg.
Where [11] appears, read: voie orale 45 mn avant la perfusion d'aconitine, 100 mg/kg.
[12] abbreviates: souris, anesthésie chloroformique profonde, administration intrapéritonéale.
Setting [13] is: voie intraveineuse 1 mn avant la perfusion d'aconitine, 5 mg/kg.

Molecules are shown by their SMILES. Read-outs that look alike come from different tables or passages of the source.

For the compound `Cc1ccc(NCC(O)CNC(C)(C)C)cc1` (centres unmarked) [COR37 09C, Dichlorhydrate du (méthyl-4 anilino)-1 tertiobutylamino-3 propanol-2], the mortality in data set [1] (300 mg/kg) is 0%; in data set [2] (50 mg/kg), 0%; in data set [2] (100 mg/kg) it was 100%. Further, the inhibition at 100 µg/mL with PRP de lapin came out at 79%.

As to `CC(C)c1ccccc1NCC(O)CNC(C)(C)C` (centres unmarked) [COR37 05C, Dichlorhydrate de l'(isopropyl-2 anilino)-1 tertiobutylamino-3 propanol-2], the mortality in data set [1] (500 mg/kg) turned out to be 0%; in [1] (750 mg/kg), 40%; in data set [1] (1000 mg/kg) it was 40%; in [2] (200 mg/kg), 0%. In addition, the IC30 in data set [3] (setting [9]) was determined as 6.22 µM. Also, the “pourcentage d'augmentation de la quantité d'aconitine provoquant l'apparition d'extrasystoles (E)” value was determined as 78% in data set [4] (setting [10]) and 83% in data set [4] (setting [11]). The “pourcentage d'augmentation de la quantité d'aconitine provoquant l'apparition de morts (M)” value was found to be 83% in [4] (setting [10]) and 107% in data set [4] (setting [11]). The figures for the “pourcentage d'augmentation de la quantité d'aconitine provoquant l'apparition de tachycardies (T)” value in data set [4] (setting [10]) and in [4] (setting [11]) were 87% and 99%, respectively. In addition, in [4] (setting [11]), the “pourcentage d'augmentation de la quantité d'aconitine provoquant l'apparition de fibrilloflutters (F)” value worked out at 43%. Moreover, the “pourcentage d'animaux ne présentant pas de fibrilloflutters” value in data set [4] (100 mg/kg) amounted to 70%. In data set [5], the LD50 turned out to be 56.6 mg/kg. Besides, the minimal effective dose in [6] (setting [12]) came out at 25 mg/kg.

As to `CC(C)NCC(O)COc1cccc2ccccc12` (centres unmarked) [propranolol, reference compound], in [3], the IC30 was 4.5 µM. Also, the minimal effective dose in data set [6] stood at 40 mg/kg.

As to `Cc1cccc(C(C)C)c1NCC(O)CN(C)C` (centres unmarked) [COR37 50C, Dichlorhydrate de l' (isopropyl-2 méthyl-6 anilino)-1 diméthylamino-3 propanol-2], the mortality in data set [1] (300 mg/kg) came to 0%. The mortalité result in the data set on souris is “aucune mortalité”. In the data set with PRP de lapin, the inhibition at 100 µg/mL is 80%. Also, the activité anticalcique entry in data set [7] is “inhibent l'augmentation de la force contractile”. Further, the minimal effective dose in data set [6] (setting [12]) amounted to 100 mg/kg.

As for `Nc1ncnc2c1ncn2[C@@H]1O[C@H](CO)[C@@H](O)[C@H]1O` [adénosine, reference compound], in the data set on PRP de lapin, the inhibition at 100 µg/mL was found to be 64%.

`C=C[C@H]1C[N@@]2CC[C@H]1C[C@@H]2[C@@H](O)c1ccnc2ccc(OC)cc12` [quinidine, reference compound]: the IC30 in [3] was 4 µM. The minimal effective dose in data set [6] came out at 100 mg/kg.

As for `Cc1cccc(C(C)C)c1NCC(O)CNC(C)(C)C` (centres unmarked) [COR37 06C, Dichlorhydrate de l'(isopropyl-2 méthyl-6 anilino)-1 tertiobutylamino-3 propanol-2], the mortality stood at 0% in [1] (100 mg/kg); 10% in data set [1] (200 mg/kg); 10% in [1] (250 mg/kg); 90% in [1] (375 mg/kg); 100% in data set [1] (500 mg/kg); 0% in data set [2] (100 mg/kg). The mortality in data set [2] (200 mg/kg) came to 100%. Moreover, in data set [1] (limits (261-332), read-out: DL50 (the source's name)), the LD50 came to 294 mg/kg. In addition, the inhibition at 1 µg/mL in data set [8] was 100%. In addition, the “durée d'activité anesthésique locale” value with cornée de cobaye is 30 mn. Moreover, the IC30 in data set [3] (setting [9]) is 7.26 µM. Further, the “pourcentage d'augmentation de la quantité d'aconitine provoquant l'apparition d'extrasystoles (E)” value was 45% in [4] (setting [13]) and 25% in [4] (setting [11]). Also, the “pourcentage d'augmentation de la quantité d'aconitine provoquant l'apparition de morts (M)” value in data set [4] (setting [13]) is 79%; in data set [4] (setting [11]), 105%. Further, the “pourcentage d'augmentation de la quantité d'aconitine provoquant l'apparition de tachycardies (T)” value in data set [4] (setting [13]) amounted to 39%; in data set [4] (setting [11]) it was 32%. Further, the “pourcentage d'augmentation de la quantité d'aconitine provoquant l'apparition de fibrilloflutters (F)” value in [4] (setting [11]) is 29%. The “pourcentage d'animaux ne présentant pas de fibrilloflutters” value in data set [4] (100 mg/kg) worked out at 60%. Further, the minimal effective dose in data set [6] (setting [12]) came out at 25 mg/kg.

As for `CCN(CC)CCOC(=O)c1ccc(N)cc1` [procaïne], the IC30 in data set [3] (setting [9]) is 10 µM.

The values above are taken from patent publication EP0148096A1, “Diversely substituted 1-arylamino-3-amino-2-propanols, process for their preparation and their therapeutical application” (CORTIAL S.A., priority 1983, dated 1985).
